From ChEMBL document CHEMBL1143219, “Proline bis-amides as potent dual orexin receptor antagonists” (Bioorg Med Chem Lett, 2008)

Tests used:
[1] = biological target: T1, Orexin receptor type 2 (Homo sapiens, UniProt O43614); assay: Displacement of [3H](S)-N-(2-(1H-pyrrol-1-yl)phenyl)-1-(2-(1-methyl-1H-benzo[d]imidazol-2-ylthio)acetyl)pyrrolidine-2-carboxamide from human OX2R expressed in CHO cells; format: cell-based
T1 sequence (O43614 whole entry): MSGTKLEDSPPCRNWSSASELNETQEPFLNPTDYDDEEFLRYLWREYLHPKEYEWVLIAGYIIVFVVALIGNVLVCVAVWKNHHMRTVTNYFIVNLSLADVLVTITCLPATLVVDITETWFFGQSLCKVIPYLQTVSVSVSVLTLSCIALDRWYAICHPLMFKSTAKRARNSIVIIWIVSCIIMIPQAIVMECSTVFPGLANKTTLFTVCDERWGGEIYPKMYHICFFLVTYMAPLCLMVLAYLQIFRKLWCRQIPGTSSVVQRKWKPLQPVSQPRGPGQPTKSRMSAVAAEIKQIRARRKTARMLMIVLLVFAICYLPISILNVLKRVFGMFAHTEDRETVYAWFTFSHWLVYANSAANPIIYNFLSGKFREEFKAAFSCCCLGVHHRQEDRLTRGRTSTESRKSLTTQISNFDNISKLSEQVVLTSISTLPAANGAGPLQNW

[2] = biological target: T2, Orexin receptor type 2 (Homo sapiens) (UniProt O43614); assay: Antagonist activity at human OX2R expressed in CHOK1 cells assessed as effect on calcium mobilization; format: functional, cell-based; conditions: CHO-K1
T2 sequence (whole entry): T1 sequence (O43614 whole entry)

[3] = biological target: T3, Orexin/Hypocretin receptor type 1 (Homo sapiens, UniProt O43613); assay: Displacement of [3H](S)-1-[2-(1-methyl-1H-benzoimidazol-2-ylsulfanyl)-acetyl]-pyrrolidine-2-carboxylic acid biphenyl-2-ylamide from human OX1R expressed in CHO cells; format: cell-based
T3 sequence (O43613 whole entry): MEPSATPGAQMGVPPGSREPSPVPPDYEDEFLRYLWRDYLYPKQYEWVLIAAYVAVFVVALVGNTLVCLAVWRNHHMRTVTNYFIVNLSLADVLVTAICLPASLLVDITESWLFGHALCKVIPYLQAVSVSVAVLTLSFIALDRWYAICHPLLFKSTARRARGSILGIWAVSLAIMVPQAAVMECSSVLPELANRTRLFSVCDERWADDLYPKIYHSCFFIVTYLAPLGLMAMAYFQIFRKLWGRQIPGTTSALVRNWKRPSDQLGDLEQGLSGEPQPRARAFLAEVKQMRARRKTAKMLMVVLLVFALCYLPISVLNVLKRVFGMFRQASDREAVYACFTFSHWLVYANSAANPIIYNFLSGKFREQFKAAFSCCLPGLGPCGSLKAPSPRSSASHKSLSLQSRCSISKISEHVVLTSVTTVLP

[4] = biological target: T4, Thyrotropin-releasing hormone receptor (Homo sapiens) (UniProt P34981); assay: Inhibition of TRH receptor
T4 sequence (whole entry): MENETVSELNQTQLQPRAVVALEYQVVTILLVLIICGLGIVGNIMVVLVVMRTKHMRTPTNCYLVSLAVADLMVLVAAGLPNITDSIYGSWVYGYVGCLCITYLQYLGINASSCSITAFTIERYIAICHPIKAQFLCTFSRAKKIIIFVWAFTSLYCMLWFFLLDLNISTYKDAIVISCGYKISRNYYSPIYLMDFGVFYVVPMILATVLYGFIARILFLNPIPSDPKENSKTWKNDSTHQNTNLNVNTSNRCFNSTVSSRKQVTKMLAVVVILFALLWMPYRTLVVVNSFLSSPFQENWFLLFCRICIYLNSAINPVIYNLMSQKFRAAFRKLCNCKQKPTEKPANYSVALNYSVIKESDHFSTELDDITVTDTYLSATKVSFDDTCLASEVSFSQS

[5] = Inhibition of sodium channel at site 2
[6] = Half life in rat; format: ADME, organism-based; conditions: in vivo
[7] = biological target: T5, Orexin/Hypocretin receptor type 1 (Rattus norvegicus) (UniProt P56718); assay: Antagonist activity at rat OX1R assessed as effect on calcium mobilization; format: functional
T5 sequence (whole entry): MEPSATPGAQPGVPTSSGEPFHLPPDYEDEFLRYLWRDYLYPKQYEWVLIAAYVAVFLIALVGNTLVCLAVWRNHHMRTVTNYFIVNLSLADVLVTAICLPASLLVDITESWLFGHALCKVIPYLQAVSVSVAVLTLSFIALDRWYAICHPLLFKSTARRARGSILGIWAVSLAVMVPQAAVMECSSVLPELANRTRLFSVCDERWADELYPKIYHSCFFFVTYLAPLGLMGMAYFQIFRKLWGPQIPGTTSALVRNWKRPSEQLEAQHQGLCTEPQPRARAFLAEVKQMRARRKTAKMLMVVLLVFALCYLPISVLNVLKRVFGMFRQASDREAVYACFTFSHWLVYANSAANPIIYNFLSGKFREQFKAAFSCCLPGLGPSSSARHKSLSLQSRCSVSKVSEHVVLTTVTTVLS

[8] = Oral bioavailability in rat; format: ADME, organism-based; conditions: in vivo
[9] = Drug level in rat brain at 100 mg/kg, ip after 30 mins; format: ADME, organism-based; parameters: dose 100 mg/kg, route intraperitoneal; conditions: read-out: Drug uptake
[10] = Drug level in rat plasma at 100 mg/kg, ip after 30 mins; format: ADME, organism-based; parameters: dose 100 mg/kg, route intraperitoneal
[11] = Drug level in rat cerebrospinal fluid at 100 mg/kg, ip after 30 mins; format: ADME, organism-based; parameters: dose 100 mg/kg, route intraperitoneal; conditions: read-out: Drug uptake
[12] = biological target: Synaptic vesicular amine transporter (Homo sapiens) (UniProt Q05940); assay: Inhibition of monoamine transporter
[13] = Inhibition of prostanoid receptor
[14] = biological target: T6, Thromboxane A2 receptor (Homo sapiens) (UniProt P21731); assay: Inhibition of thromboxane A2 receptor
T6 sequence (whole entry): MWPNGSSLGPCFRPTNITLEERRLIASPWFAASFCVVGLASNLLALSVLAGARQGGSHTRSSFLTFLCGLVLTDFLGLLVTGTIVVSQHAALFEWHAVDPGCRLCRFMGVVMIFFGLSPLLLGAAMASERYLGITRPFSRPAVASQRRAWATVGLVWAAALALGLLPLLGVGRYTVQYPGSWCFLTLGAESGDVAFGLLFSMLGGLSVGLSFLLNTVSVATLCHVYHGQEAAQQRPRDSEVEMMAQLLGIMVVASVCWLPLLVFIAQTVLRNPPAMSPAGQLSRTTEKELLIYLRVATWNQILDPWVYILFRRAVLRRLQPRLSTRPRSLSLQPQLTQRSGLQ

[15] = tested on: Rattus norvegicus; assay: Inhibition of ADL-orexin-B-induced increase in locomotion activity in ip dosed rat; format: functional, organism-based
[16] = Partition coefficient, log P of the compound; format: physicochemical; conditions: octanol/water
[17] = Clearance in rat; format: ADME, organism-based; conditions: in vivo

Synaptic vesicular amine transporter (Homo sapiens), sequence (Q05940 whole entry): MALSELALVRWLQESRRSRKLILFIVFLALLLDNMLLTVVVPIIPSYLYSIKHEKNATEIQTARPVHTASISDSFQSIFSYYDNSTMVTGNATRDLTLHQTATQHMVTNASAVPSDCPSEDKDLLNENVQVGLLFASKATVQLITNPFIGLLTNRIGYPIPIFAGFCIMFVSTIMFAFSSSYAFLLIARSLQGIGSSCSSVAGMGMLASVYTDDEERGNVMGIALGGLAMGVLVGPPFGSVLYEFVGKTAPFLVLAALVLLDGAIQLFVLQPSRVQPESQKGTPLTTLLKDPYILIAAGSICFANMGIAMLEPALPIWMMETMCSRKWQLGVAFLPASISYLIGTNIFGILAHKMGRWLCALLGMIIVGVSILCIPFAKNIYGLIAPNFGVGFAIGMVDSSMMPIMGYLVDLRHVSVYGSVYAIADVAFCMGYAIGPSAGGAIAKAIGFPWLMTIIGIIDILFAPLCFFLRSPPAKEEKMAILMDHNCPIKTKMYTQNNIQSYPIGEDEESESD

Compound O=C(Nc1ccccc1-n1cccc1)[C@@H]1CCCN1C(=O)CSc1nc2ccccc2o1 has a Ki [1] of 8 nM, an Activity [2] of 28 nM and a Ki [3] of 120 nM.
For O=C(Nc1ccccc1-n1cccc1)[C@@H]1CCCN1C(=O)CSc1nc2ccccc2s1, the Ki [1] was 2 nM, the Activity [2] was 11 nM and the Ki [3] was 39 nM.
With O=C(Nc1ccccc1)[C@@H]1CCCN1C(=O)CSc1nc2ccccc2[nH]1 the Ki [1] was 560 nM, the Activity [2] was 4050 nM and the Ki [3] was 1400 nM.
In the case of O=C(Nc1ccc(-c2ccccc2)cc1)[C@@H]1CCCN1C(=O)CSc1nc2ccccc2[nH]1, the Ki [1] is reported as 11 nM, the Activity [2] is reported as 143 nM and the Ki [3] is reported as 2300 nM.
Cc1ccc2c(c1)nc(SCC(=O)N1CCC[C@H]1C(=O)Nc1ccccc1-n1cccc1)n2C showed a Ki [1] of 0.09 nM, an Activity [2] of 8 nM and a Ki [3] of 0.7 nM.
With Cn1c(SCC(=O)N2CCC[C@H]2C(=O)Nc2ccccc2-n2cccc2)nc2ccccc21 the Ki [1] was 0.3 nM, the Activity [2] was 2 nM and the Ki [3] was 9 nM.
In the case of O=C(Nc1ccccc1-n1cccc1)[C@@H]1CCCN1C(=O)CSc1nc2ccccc2[nH]1, the Ki [1] is reported as 1 nM, the Activity [2] is reported as 6 nM and the Ki [3] is reported as 28 nM.
Work on Cn1c(CCC(=O)N2CCC[C@H]2C(=O)Nc2ccccc2-c2ccccc2)nc2ccccc21 yielded an Activity [4] of less than 10 µM, an Activity [5] of less than 10 µM and a Ki [1] of 0.8 nM. It also gave an Activity [2] of 5 nM, a Ki [3] of 15 nM and a half-life [6] of 18 min.
O=C(Nc1ccccc1-n1cccc1)[C@H]1CCCN1C(=O)CSc1nc2ccccc2[nH]1 gave a Ki [1] of 131 nM and a Ki [3] of 2500 nM.
Compound O=C(Nc1ccccc1-c1ccccc1)[C@@H]1CCCN1C(=O)CSc1nc2ccccc2[nH]1 has a Ki [1] of 0.6 nM, an Activity [2] of 7 nM and a Ki [3] of 10 nM.
Compound O=C(Nc1ccccc1-n1cccc1)[C@@H]1CCCN1C(=O)CCc1nc2ccccc2[nH]1 has an Activity [7] of 520 nM, a Ki [1] of 11 nM and an Activity [2] of 36 nM. It also gave a Ki [3] of 130 nM.
With Cc1ccc2[nH]c(SCC(=O)N3CCC[C@H]3C(=O)Nc3ccccc3-n3cccc3)nc2c1 the Activity [2] was 2 nM.
In the case of O=C(Nc1ccccc1-c1ccccc1)[C@@H]1CCCN1C(=O)CCc1nc2ccccc2[nH]1, the Ki [1] is reported as 6 nM, the Activity [2] is reported as 20 nM and the Ki [3] is reported as 40 nM.
For Cc1ccc2nc(SCC(=O)N3CCC[C@H]3C(=O)Nc3ccccc3-n3cccc3)[nH]c2c1, the Ki [1] was 0.2 nM and the Ki [3] was 3 nM.
In the case of O=C(Nc1ccccc1-c1ccccc1F)[C@@H]1CCCN1C(=O)CCc1nc2ccccc2[nH]1, the Ki [1] is reported as 3 nM, the Activity [2] is reported as 4 nM and the Ki [3] is reported as 27 nM.
Work on COc1ccccc1-c1ccccc1NC(=O)[C@@H]1CCCN1C(=O)CCc1nc2ccccc2[nH]1 yielded a Ki [1] of 2 nM, an Activity [2] of 5 nM and a Ki [3] of 86 nM.
O=C(Nc1cccc(-c2ccccc2)c1)[C@@H]1CCCN1C(=O)CSc1nc2ccccc2[nH]1 showed a Ki [1] of 280 nM, an Activity [2] of 2640 nM and a Ki [3] of 500 nM.
O=C(Nc1ccccc1Oc1ccccc1)[C@@H]1CCCN1C(=O)CSc1nc2ccccc2[nH]1 gave a Ki [1] of 3 nM, an Activity [2] of 16 nM and a Ki [3] of 69 nM.
For Cn1c(SCC(=O)N2CCC[C@H]2C(=O)Nc2ccccc2-c2ccccc2)nc2ccccc21, the bioavailability [8] was 11%, the concentration at 0.5 h [9] was 2370 nM and the concentration at 0.5 h [10] was 3500 nM. For the same compound, the concentration at 0.5 h [11] was 43 nM, the Activity [12] was less than 10 µM and the Activity [13] was less than 10 µM. For the same compound, the Activity [14] was less than 10 µM, the Activity [15] was “Dose-dependent effect” and the Ki [1] was 0.2 nM. For the same compound, the Activity [2] was 4 nM, the logP [16] was 3.4 and the clearance [17] was 3.7 mL/min/kg. It also gave a half-life [6] of 18 min.
Work on Cc1ccc2nc(SCC(=O)N3CCC[C@H]3C(=O)Nc3ccccc3-n3cccc3)n(C)c2c1 yielded a Ki [1] of 0.1 nM, an Activity [2] of 8 nM and a Ki [3] of 2 nM.
Cn1c(CCC(=O)N2CCC[C@H]2C(=O)Nc2ccccc2-n2cccc2)nc2ccccc21 showed a Ki [1] of 2 nM, an Activity [2] of 3 nM and a Ki [3] of 49 nM.
